One data set deals with T1, CYP2A6 (Homo sapiens, UniProt P11509).
T1 sequence (P11509 whole entry): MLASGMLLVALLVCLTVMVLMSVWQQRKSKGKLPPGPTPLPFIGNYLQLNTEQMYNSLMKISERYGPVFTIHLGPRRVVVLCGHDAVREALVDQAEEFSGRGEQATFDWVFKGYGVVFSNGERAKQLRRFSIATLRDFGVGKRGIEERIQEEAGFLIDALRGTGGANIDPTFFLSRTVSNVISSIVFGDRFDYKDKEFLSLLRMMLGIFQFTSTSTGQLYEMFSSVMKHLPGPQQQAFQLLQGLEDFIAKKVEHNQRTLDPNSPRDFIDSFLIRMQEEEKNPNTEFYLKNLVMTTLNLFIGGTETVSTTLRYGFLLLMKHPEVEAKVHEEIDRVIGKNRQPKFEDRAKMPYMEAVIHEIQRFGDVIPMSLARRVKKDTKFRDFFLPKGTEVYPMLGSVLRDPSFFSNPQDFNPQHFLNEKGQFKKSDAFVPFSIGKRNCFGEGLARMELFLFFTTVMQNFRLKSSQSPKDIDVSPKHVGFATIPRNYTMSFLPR
Kind of data set: Inhibitory activity of 20 uM SPP100 on 37 Pmoles of cDNA-derived CYP2A6 enzyme in microsome prepared from human lymphoblastoid cell line. The conditions noted are these: probe coumarine. The class given is ADME, microsomes. Further details: conc 20 uM, interact cpd conc 3 uM.

Data set [1] can be described thus: AUC (0-96h) of total radioactivity following oral administration of [14C] aliskiren hemifumarate at 100 mg.Kg-1 level in rat. Particulars: in vivo. Type of data set: ADME, organism-based, Albino HAN:WIST, Plasma.
The nature of data set [2]: Excretion of radioactivity (0-24h) in faeces following single oral dose of 100 mg.Kg-1 [14C] aliskiren hemifumarate in rat. Type of data set: ADME, organism-based, Albino HAN:WIST, Feces. The conditions noted are these: in vivo.
A short description of data set [3]: Tmax of radioactivity following repeated oral administration of [14C] aliskiren hemifumarate at 100 mg.Kg-1 level studied after 2h of dosing on day 1 in rat. Type of data set: ADME, organism-based, Albino HAN:WIST. The conditions noted are these: in vivo.
Data set [4] is described as follows: Plasma clearance (0-96h) of total radioactivity following oral administration of [14C] aliskiren hemifumarate at 100 mg.Kg-1 level in rat. Particulars: in vivo, iv. Type of data set: ADME, organism-based, Albino HAN:WIST.
The next data set has as its target T2, Cytochrome P450 4F2 (Homo sapiens, UniProt P78329).
T2 sequence (P78329 whole entry): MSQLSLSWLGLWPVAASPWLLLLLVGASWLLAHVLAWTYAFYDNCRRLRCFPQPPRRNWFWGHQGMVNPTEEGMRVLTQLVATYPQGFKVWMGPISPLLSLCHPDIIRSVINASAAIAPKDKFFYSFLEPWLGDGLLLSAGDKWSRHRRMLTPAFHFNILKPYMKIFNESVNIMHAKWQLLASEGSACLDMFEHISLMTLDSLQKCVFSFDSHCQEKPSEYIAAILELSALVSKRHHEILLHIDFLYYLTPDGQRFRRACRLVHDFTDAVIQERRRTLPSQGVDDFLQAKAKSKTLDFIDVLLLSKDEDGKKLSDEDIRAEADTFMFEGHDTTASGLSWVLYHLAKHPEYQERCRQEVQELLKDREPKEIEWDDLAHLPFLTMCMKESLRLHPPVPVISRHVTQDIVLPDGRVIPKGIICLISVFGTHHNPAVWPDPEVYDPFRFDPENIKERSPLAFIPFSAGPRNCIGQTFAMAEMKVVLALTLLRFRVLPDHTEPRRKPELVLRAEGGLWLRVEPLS
Kind of data set: Metabolic clearance (ul.min.nmol-1 CYP) of aliskiren hemifumarate for CYP4F2 was determined in human liver microsome incubated with [14C]SPP100 hemifumarate. Particulars: microsomes. Type of data set: ADME.

The nature of data set [5]: Biliary elimination of aliskiren following single intravenous dose of [14C] aliskiren hemifumarate at 10 mg.Kg-1 level in mouse. Type of data set: ADME, organism-based, TgRasH2, Bile. The conditions noted are these: in vivo.
A short description of data set [6]: Excretion (0-24h) of radioactivity in faeces following intravenous administration of [14C] aliskiren hemifumarate at 1 mg.Kg-1 level in marmoset. Type of data set: ADME, organism-based, Callithrix jacchus, Feces. Particulars: in vivo.
Data set [7] in a line: Excretion (0-24h) of radioactivity in urine following oral administration of [14C] aliskiren hemifumarate at 3 mg.Kg-1 level in marmoset. Type of data set: ADME, organism-based, Callithrix jacchus. Particulars: in vivo.
Data set [8] in a line: Excretion of radioactivity (0-96h) in urine following single oral dose of 100 mg.Kg-1 [14C] aliskiren hemifumarate in rat. The class given is ADME, organism-based, Albino HAN:WIST. The conditions noted are these: in vivo.
The next data set addresses T3, Cytochrome P450 4F3 (Homo sapiens, UniProt Q08477).
T3 sequence (Q08477 whole entry): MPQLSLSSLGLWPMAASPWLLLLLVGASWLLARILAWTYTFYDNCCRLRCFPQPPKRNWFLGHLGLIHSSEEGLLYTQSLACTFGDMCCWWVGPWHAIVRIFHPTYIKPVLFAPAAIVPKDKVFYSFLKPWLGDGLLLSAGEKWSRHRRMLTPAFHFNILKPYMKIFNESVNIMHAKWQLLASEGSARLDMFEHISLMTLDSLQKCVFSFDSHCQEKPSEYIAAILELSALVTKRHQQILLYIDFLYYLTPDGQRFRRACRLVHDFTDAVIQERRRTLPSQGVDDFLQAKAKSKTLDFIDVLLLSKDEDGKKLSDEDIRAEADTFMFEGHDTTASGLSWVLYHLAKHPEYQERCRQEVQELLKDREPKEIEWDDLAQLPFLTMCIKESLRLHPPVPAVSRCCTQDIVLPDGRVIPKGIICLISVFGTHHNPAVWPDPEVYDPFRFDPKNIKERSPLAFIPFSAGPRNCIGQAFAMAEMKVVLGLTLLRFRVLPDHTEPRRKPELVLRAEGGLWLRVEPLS
Briefly: Metabolic clearance (ul.min.nmol-1 CYP) of aliskiren hemifumarate for CYP4F3B was determined in human liver microsome incubated with [14C]SPP100 hemifumarate. The class given is ADME. Particulars: microsomes.

Data set [9] is described as follows: Excretion (0-168h) of 14C-radioactivity in faeces following single oral dose of 300 mg [14C]SPP100 studied in healthy men. Type of data set: ADME, organism-based, Feces. Particulars: human, in vivo, at 300 mg.
Data set [10] is described as follows: Excretion of radioactivity (0-72h) in faeces following single oral dose of 500 mg.Kg-1 [14C] aliskiren hemifumarate in mouse. The conditions noted are these: in vivo. Type of data set: ADME, organism-based, TgRasH2, Feces.
Data set [11] can be described thus: Excretion of radioactivity (72-96h) in urine following single intravenous dose of 10 mg.Kg-1 [14C] aliskiren hemifumarate in rat. Type of data set: ADME, organism-based, Albino HAN:WIST. The conditions noted are these: in vivo.
Data set [12] can be described thus: Cmax of aliskiren hemifumarate following 2 week oral dosing of aliskiren hemifumarate at 100 mg.Kg-1 level studied on day 1 in female Callithrix jacchus. Type of data set: ADME, organism-based. Particulars: marmoset, plasma.
The nature of data set [13]: Tmax of aliskiren hemifumarate following single dosing of SPP100B oral solution at 80 mg level studied on day 1 in men. The conditions noted are these: male, human, plasma. The class given is ADME, organism-based.
Data set [14] can be described thus: Cmax of aliskiren hemifumarate following 4 week oral dietary dosing of aliskiren hemifumarate at 2000 mg.Kg-1 level in male mouse. The class given is ADME, organism-based. The conditions noted are these: CB6F1-TGrasH2, mouse, in vivo.
Data set [15] can be described thus: Bioavailability (0-168h) of unlabeled aliskiren hemifumarate following single oral administration of aliskiren hemifumarate at 3 mg.Kg-1 level in marmoset. Type of data set: ADME, organism-based, Callithrix jacchus. Particulars: plasma.
Data set [16] is described as follows: Absolute oral bioavailability of aliskiren hemifumarate after single oral administration of [14C] aliskiren hemifumarate in mouse. The class given is ADME, organism-based, TgRasH2, Plasma. The conditions noted are these: in vivo, 500 mg/kg.
Data set [17] can be described thus: AUCspec of aliskiren hemifumarate following 2 week oral dosing of aliskiren hemifumarate at 50 mg.Kg-1 level studied on day 14 in male Callithrix jacchus. The class given is ADME, organism-based, Plasma. The conditions noted are these: marmoset, in vivo, 336 h.
Data set [18] is described as follows: Tmax of aliskiren hemifumarate following 4 week oral dietary dosing of aliskiren hemifumarate at 2000 mg.Kg-1 level in female mouse. The class given is ADME, organism-based. The conditions noted are these: CB6F1-TGrasH2, mouse, in vivo.

From ChEMBL document CHEMBL3508693 (2016) come the findings set out here.

One may read the inhibition as the relative decrease from the control value, in per cent. Low readings indicate a response near the control, high ones a response far below the control. Consider `COCCCOc1cc(C[C@@H](C[C@H](N)[C@@H](O)C[C@H](C(=O)NCC(C)(C)C(N)=O)C(C)C)C(C)C)ccc1OC`, for which 20 µM produced 2.6% inhibition against CYP2A6.

By AUC is commonly meant concentration integrated over time. Consider `COCCCOc1cc(C[C@@H](C[C@H](N)[C@@H](O)C[C@H](C(=O)NCC([14CH3])([14CH3])C(N)=O)C(C)C)C(C)C)ccc1OC.O=C(O)/C=C/C(=O)O`, for which the AUC in data set [1] came out at 5.38 µM·h; in [1] (iv, 10 mg/kg) it was 8.08 µM·h. Moreover, the Radiolabel recovery is on record as 2.96% in [2]; “OUTCOME = Observed, VALUE = Elimination of aliskiren occurred mainly via the biliary or faecal route” in [5]; 51.5% in data set [6]; 2.22% in data set [7]; 0.69% in data set [8]; 90.89% in [9]. The Radiolabel recovery stood at 1.98% in data set [10] and 2.5% in [11]. For the same compound, the “Tmax(1)” value in [3] worked out at 2 h. Moreover, the Plasma clearance in data set [4] is 1.28 L·h/kg. The CL was found to be 7.9 µL·min/nmol on Cytochrome P450 4F2 and 24 µL·min/nmol on Cytochrome P450 4F3.

Usually Cmax stands for the highest concentration seen after dosing. As usually defined, the Tmax is the time from dosing to the highest level. As a reminder, the bioavailability is dose-corrected exposure relative to a reference, in per cent. Regarding `COCCCOc1cc(C[C@@H](C[C@H](N)[C@@H](O)C[C@H](C(=O)NCC(C)(C)C(N)=O)C(C)C)C(C)C)ccc1OC.COCCCOc1cc(C[C@@H](C[C@H](N)[C@@H](O)C[C@H](C(=O)NCC(C)(C)C(N)=O)C(C)C)C(C)C)ccc1OC.O=C(O)/C=C/C(=O)O` [ALISKIREN FUMARATE], the results for the maximum concentration (Cmax) in data set [12] and in [14] were 7940 ng/mL and 439 ng/mL, respectively. Further, the Tmax was 2.8 h in data set [13] and 0.5 h in data set [18]. The same compound had a bioavailability in data set [15] of 3%. The F in [16] is 1.5%. In addition, the AUC normalised in data set [17] is listed as 2.14 ((ug.h.ml-1)/(mg/kg).
